This is an account of results in patent EP4810054A1, “NECROPTOSIS CONTROL AGENT” (The University of Tokyo, priority 2023, dated 2025).

The subject of data set [1] is MSP-1 neurons. Description: P-MLKL immunostaining (necroptosis) of MSP-1 neurons treated with culture supernatant of TNF-α-treated astrocytes. In kind it is cell-based, mouse. As for the experimental part:
(§1) To obtain differentiated astrocytes, the above MSP-1 cells were harvested and cultured overnight in the MSP-1 proliferation medium on new dishes. The next day, for differentiation into astrocytes, the cells were cultured in serum-free DMEM/F12 medium containing N-2 supplement (R&D Systems), leukemia inhibitory factor (LIF, 10 ng/ml, Fujifilm Wako Pure Chemical Industries), and ciliary neurotrophic factor (CNTF, 10 ng/ml, Fujifilm Wako Pure Chemical Industries). For differentiation into neurons, the cells were cultured in serum-free DMEM/F12 medium containing only N-2 supplement. These media are referred to as MSP-1 differentiation media. Each medium was replaced with fresh medium every 2 days. For differentiation into astrocytes, in particular, on […], the cells were exposed to tumor necrosis factor-α (TNF-α, 100 ng/ml, Fujifilm Wako Pure Chemical Industries) for 24 hours. In the anserine treatment group, the cells were pretreated with L-anserine nitrate (Fujifilm Wako Pure Chemical Industries) for 2 hours prior to the exposure to TNF-α.
The harvested MSP-1 cells were cultured in the MSP-1 differentiation medium on poly-L-lysine/fibronectin-coated chamber glass (4-well, Watson) and differentiated into astrocytes. After the TNF-α treatment, the cells were fixed with 4% PFA for 10 minutes and washed with TBS for 10 minutes. Subsequently, the cells were blocked with 5% BSA diluted in 0.05% TBS-X at room temperature for 60 minutes, then incubated overnight at 4°C in a blocking solution containing primary antibodies. The primary antibodies used in this study were anti-GFAP (mouse, 1:1000, Sigma), anti-NeuN (mouse, 1:1000, Millipore), anti-NF-κB p65 (rabbit, 1:500, CST), and anti-P-MLKL (rabbit, 1:2000, Abcam). The cells were then washed three times with TBS for 5 minutes each, and incubated with secondary antibodies at room temperature for 2 hours. The secondary antibodies used in this study were anti-mouse IgG donkey Alexa 488 (1:1000, Molecular Probes) and anti-rabbit IgG donkey Alexa 568 (1:1000, Molecular Probes). After washing with TBS for 5 minutes, the sections were incubated with DAPI (1:10,000, Sigma) in TBS for 5 minutes, and then washed with TBS 2 times for 5 minutes each. The cells were visualized using a confocal microscope (FV3000-L4EN-TN21, Olympus).
(§2) To obtain differentiated astrocytes, the MSP-1 cells were harvested and cultured overnight in the MSP-1 proliferation medium on new dishes. The next day, the medium was replaced with serum-free DMEM/F12 medium containing N-2 supplement (R&D Systems), leukemia inhibitory factor (LIF, 10 ng/ml, Wako), and ciliary neurotrophic factor (CNTF, 10 ng/ml, Wako). This medium was referred to as astrocyte differentiation medium. The culture medium was replaced with fresh medium every 2 or 3 days. […]

Data set [2] concerns MSP-1 neurons. Description: AT8 (tau phosphorylation) immunostaining of MSP-1 neurons treated with astrocyte culture medium. In kind it is cell-based, mouse. As for the experimental part:
as §2, with “days. On day 5, the cells were exposed to tumor necrosis factor-α (TNF-α, 100 ng/ml, Wako) for 24 hours. For anserine treatment group, the cells were pretreated with L-anserine (Toronto Research Chemicals) for 2 hours prior to the exposure to TNF-α.” for “days.”
(§3) The cells were cultured on poly-L-lysine/fibronectin-coated chamber glass (4-well or 8-well, Watson) containing the respective MSP-1 differentiation media to induce differentiation into astrocytes or neurons. […] The images were analyzed and quantified using ImageJ.
(§4) Microscopic images were analyzed using the ImageJ software. For AT8, P-RIPK1, and P-MLKL staining, staining intensity was calculated. […] For P-P65 staining, only the staining intensity in the nucleus was calculated, and the data are presented as relative intensity ± S.E.M. for each group. At least 100 cells for each group were analyzed from at least 10 random images.

The nature of data set [3]: Stability of anserine (temperature, storage in solution). In kind it is physicochemical.
For data set [4], the system named is C3, Ccl2, Cxcl1, and iNOS. Description: Real-time PCR of inflammatory factor genes in TNF-α-treated MSP-1 astrocytes. In kind it is cell-based, mouse. As for the experimental part: as §2, with “days. On day 5, the cells were exposed to tumor necrosis factor-α (TNF-α, 100 ng/ml, Wako) for 24 hours. For anserine treatment group, the cells were pretreated with L-anserine (Toronto Research Chemicals) for 2 hours prior to the exposure to TNF-α. To obtain differentiated neurons, the culture medium for MSP-1 cells was replaced with the serum-free DMEM/F12 medium containing N-2 supplement. This medium was referred to as neuron differentiation medium. The culture medium was replaced with fresh medium every 2 days.” for “days.”
Reverse transcription reactions for cDNA synthesis were performed on the isolated RNA samples (500 ng) using SuperScript™ III Reverse Transcriptase (Thermo Fisher) according to the manufacturer's instructions. […] Analysis was performed by the 2-ΔΔ-Ct method, and the results are expressed as fold changes. […]

The test system of data set [5] is MSP-1 cells differentiated into astrocytes. Description: RNA sequencing (DEG, GO/KEGG, GSEA) of TNF-α-treated MSP-1 astrocytes. In kind it is cell-based, mouse. As for the experimental part:
as §1
The MSP-1 cells differentiated into astrocytes were harvested by trypsin treatment, and total RNA was isolated using the RNeasy Mini Kit (Qiagen). Samples (10 ng input) were pretreated using the SMART-seq Stranded Kit (Takara, Japan). Sequencing was performed using Illumina NovaSeq 6000 (Illumina, USA).
Gene expression levels were assessed by using transcripts per million (TPM) data, and differentially expressed genes (DEGs) were identified using the DESeq2 package in the R environment. Genes with p-values less than 0.05 were considered DEGs. […] Gene set enrichment analysis (GSEA) was performed based on the TPM data.
On day 5, TNF-α (100 ng/ml) was added to the MSP-1 cells differentiated into astrocytes, and the cells were treated for 24 hours. In the TNF-α + anserine group, 10 µM anserine was added to the culture medium 2 hours prior to the TNF-α treatment. These cells were harvested, and RNA sequencing (RNA-seq) analysis was performed to examine the expressed genes. […] Necroptosis-promoting factors such as C3, Ccl2, Ccl7, and Cxcl1 increased after the TNF-α treatment and decreased in the TNF-α + anserine group.
(§5) To obtain differentiated astrocytes, the MSP-1 cells were harvested and cultured overnight in the MSP-1 proliferation medium on new dishes. The next day, the medium was replaced with serum-free DMEM/F12 medium containing N-2 supplement (R&D Systems), leukemia inhibitory factor (LIF, 10 ng/ml, Wako), and ciliary neurotrophic factor (CNTF, 10 ng/ml, Wako). This medium was referred to as astrocyte differentiation medium. The culture medium was replaced with fresh medium every 2 or 3 days. On day 5, the cells were exposed to tumor necrosis factor-α (TNF-α, 100 ng/ml, Wako) for 24 hours. For anserine treatment group, the cells were pretreated with L-anserine (Toronto Research Chemicals) for 2 hours prior to the exposure to TNF-α. To obtain differentiated neurons, the culture medium for MSP-1 cells was replaced with the serum-free DMEM/F12 medium containing N-2 supplement. This medium was referred to as neuron differentiation medium. The culture medium was replaced with fresh medium every 2 days. On day 5, the cells were treated for 24 hours with the culture supernatant of the astrocytes induced from MSP-1 cells. Nec-1 and the C3aR antagonist (SB290157) were purchased from Selleck.
Total RNA was isolated from isolated astrocytes and astrocytes differentiated from MSP-1 cells using RNeasy Mini Kit (Qiagen). RNA samples in an amount of 1 ng (isolated astrocytes) or 10 ng (cultured astrocytes) were pretreated using the SMART-seq Stranded Kit (Takara Bio, Japan). Sequencing was performed using Illumina NovaSeq 6000 (Illumina, USA). Gene expression levels were evaluated using transcripts per million (TPM) data, and differentially expressed genes (DEGs) were identified using the DESeq2 package in the R environment. […]

The subject of data set [6] is MSP-1 neurons. Description: P-RIPK1 immunostaining of MSP-1 neurons treated with astrocyte culture medium. In kind it is cell-based, mouse. The following applies: MSP-1 neurons treated with anserine CM. The procedure: To obtain differentiated astrocytes, the MSP-1 cells were harvested and cultured overnight in the MSP-1 proliferation medium on new dishes. The next day, the medium was replaced with serum-free DMEM/F12 medium containing N-2 supplement (R&D Systems), leukemia inhibitory factor (LIF, 10 ng/ml, Wako), and ciliary neurotrophic factor (CNTF, 10 ng/ml, Wako). This medium was referred to as astrocyte differentiation medium. The culture medium was replaced with fresh medium every 2 or 3 days. On day 5, the cells were exposed to tumor necrosis factor-α (TNF-α, 100 ng/ml, Wako) for 24 hours. For anserine treatment group, the cells were pretreated with L-anserine (Toronto Research Chemicals) for 2 hours prior to the exposure to TNF-α. […]
as §3, §4

A further data set has as its system phospho-NF-κB. Description: Immunostaining of phospho-NF-κB (P-P65) in TNF-α-treated MSP-1 astrocytes. In kind it is cell-based, mouse. As for the experimental part:
The harvested MSP-1 cells were cultured in the MSP-1 differentiation medium on poly-L-lysine/fibronectin-coated chamber glass (4-well, Watson) and differentiated into astrocytes. After the TNF-α treatment, the cells were fixed with 4% PFA for 10 minutes and washed with TBS for 10 minutes. Subsequently, the cells were blocked with 5% BSA diluted in 0.05% TBS-X at room temperature for 60 minutes, then incubated overnight at 4°C in a blocking solution containing primary antibodies. The primary antibodies used in this study were anti-GFAP (mouse, 1:1000, Sigma), anti-NeuN (mouse, 1:1000, Millipore), anti-NF-κB p65 (rabbit, 1:500, CST), and anti-P-MLKL (rabbit, 1:2000, Abcam). […]
as §3, §4

Data set [7] concerns phosphorylated IKK complex. Description: Phosphorylated IKK immunostaining in TNF-α-treated MSP-1 astrocytes. The following applies: MSP-1 astrocytes treated with TNF-α, addition of anserine; Fig. 6. In kind it is cell-based, mouse. The procedure:
as §5, with “Nec-1 and the C3aR antagonist (SB290157) were purchased from Selleck.” left out
as §3

Data set [8] relates to male albino rats with experimentally induced sepsis. The following applies: carnosine 25 mg/kg and 50 mg/kg for 30 days; cited from earlier work.
[9] abbreviates: Example 2, MSP-1 astrocytes pretreated with anserine before TNF-α, Fig. 5A.
The mark [10] stands for this setting: 10 µM anserine 2 hours prior to TNF-α 100 ng/ml, 24 hours, versus TNF-α group.
[11] abbreviates: 10 µM anserine added 2 hours prior to TNF-α (100 ng/ml, 24 hours), RNA-seq.

The structures appear in SMILES notation.

With `N=C(N)NCCCC(NC(=O)COCC(c1ccccc1)c1ccccc1)C(=O)O` (centres unmarked) [C3aR antagonist, reference compound], the p-MLKL intensity result with MSP-1 neurons [1] (MSP-1 neurons treated with TNF CM plus C3aRA (10 µM), Fig. 4) was “decreased significantly”.
`CN1C(=O)C(Cc2c[nH]c3ccccc23)NC1=S` (centres unmarked) [Nec-1, necrostatin-1, reference compound]: the p-MLKL intensity entry in the data set on MSP-1 neurons [1] (MSP-1 neurons treated with TNF CM plus Nec 1 (30 µM), Fig. 4) is listed as “decreased significantly to the same level”.
Take `Cn1cncc1C[C@H](NC(=O)CCN)C(=O)O` [anserine, (2S)-2-[(3-amino-1-oxopropyl)amino]-3-(3-methyl-4-imidazolyl)propanoic acid]: the “intensity of AT8” value with MSP-1 neurons [2] (MSP-1 neurons treated with anserine CM) is given as “significant decrease”. The “tau-phosphorylation (p-tau expression, AT-8 staining)” value in the data set with MSP-1 neurons [2] (MSP-1 neurons treated with culture medium from TNF-α + anserine group (anserine CM), Fig. 4) is listed as “did not exhibit such p-tau expression”. Besides, the “stable storage in solution (duration)” value in [3] (in solution) was “at least two years and nine months”. The “stability at room temperature and under conditions of 180°C or lower” value in data set [3] (room temperature, 180°C or lower) is “sufficiently stable”. The “expressions of inflammatory factors such as C3” value in data set [4] (setting [9]) is listed as “decreased”. In addition, in data set [4] (anserine treatment group versus TNF-α treatment group, Fig. 2D), the “expressions of C3, Ccl2, Cxcl1, and iNOS (real-time PCR)” value is on record as “significantly decreased”. For the same compound, in the data set on MSP-1 neurons [1] (MSP-1 neurons treated with anserine CM, Fig. 4), the “intensity of P-MLKL” value is on record as “significant decrease”. Further, in the data set with MSP-1 neurons [1] (culture supernatant containing 10 mM anserine in addition to TNF-α, compared with sham group, Fig. 3), the “necroptosis of MSP-1 neurons (expression of P-MLKL in necrosomes)” value is recorded as “suppressed to a degree comparable to that observed with untreated culture supernatant (sham group)”. In [5] (setting [10]), the “Mfge8 (milk fat globule-EGF factor 8) expression (RNA-seq)” value is listed as “increased”; the “Necroptosis-promoting factors such as C3, Ccl2, Ccl7, and Cxcl1 (expression, RNA-seq)” value is listed as “decreased”. Further, in [5] (setting [11]), the “DEGs down-regulated, TNF-α + anserine vs TNF-α treatment group” value stood at 169; the “DEGs up-regulated, TNF-α + anserine vs TNF-α treatment group” value stood at 159; the “differentially expressed genes (DEGs) in the TNF-α + anserine treatment group in comparison with the TNF-α treatment group” value is on record as 328. Further, in data set [5] (setting [9]), the complement activation entry was “reduced”. Further, the “expression of gene groups involved in necroptosis induction (chemokine signaling pathway, response to cytokine, immune response, TNF signaling-related genes), GO and KEGG analyses” value in [5] (TNF-α + anserine group) was “significant decrease in expression”. The “expressions of inflammation-related genes, chemokine pathway, and complement activation pathway (GSEA)” value in [5] (TNF-α + anserine group versus TNF-α group) was “decreased”. In addition, the “intensity of P-RIPK1” value in the data set with MSP-1 neurons [6] is given as “significant decrease”. Also, the NF-κB activity result with phospho-NF-κB (setting [9]) is on record as “reduced”. The “expression of phospho-NF-κB” value in the data set with phospho-NF-κB (anserine treatment, TNF-α-induced MSP-1 astrocytes, Figs. 2B and 2C) is “reduced”. In addition, the “expression of the phosphorylated IKK complex” value in data set [7] is reported as “reduced”.
For `NCCC(=O)N[C@@H](Cc1cnc[nH]1)C(=O)O` [carnosine], in data set [8], the “IL-β, TNF-α, and MIF” value is recorded as “reduced”; the “expression of IκBα” value is “increased”; the “increased expression of p65 and p-IKKα/β (Ser 180/Ser 181)” value is reported as “suppressed”; the “lipid peroxidation and other antioxidant enzymes” value is “significantly normalized”.
